pEC50, pIC50: −log10 of the molar value.
Assays:
[1] = target: T1, Mitogen-activated protein kinase kinase kinase kinase 1 (Homo sapiens, UniProt Q92918); experiment: Inhibition of human HPK1 using myelin basic protein and [gamma33P]ATP as substrate incubated for 40 mins in presence of Mg/ATP by radiometric scintillation counting analysis
[2] = target: T1, Mitogen-activated protein kinase kinase kinase kinase 1; experiment: Inhibition of HPK1 (unknown origin)
[3] = target: T1, Mitogen-activated protein kinase kinase kinase kinase 1; experiment: Inhibition of human HPK1 in human Jurkat T cells assessed as inhibition of SLP76 phosphorylation
[4] = target: T1, Mitogen-activated protein kinase kinase kinase kinase 1; experiment: Inhibition of wild type HPK1 (unknown origin) using FAM-FPQAAsLPPYFAKKK peptide as substrate in presence of ATP by caliper assay
[5] = target: T1, Mitogen-activated protein kinase kinase kinase kinase 1; experiment: Inhibition of human HPK1 in anti-human CD3 stimulated human Jurkat T cells assessed as inhibition of SLP76 phosphorylation preincubated for 10 mins followed by anti-human CD3 stimulation and measured after 60 mins by Western blot analysis; format: cell-based
[6] = target: T1, Mitogen-activated protein kinase kinase kinase kinase 1; experiment: Inhibition of human HPK1 in human Jurkat T cells assessed as increase in anti-human CD3 stimulated IL-2 secretion preincubated for 10 mins followed by anti-human CD3 stimulation and measured after 24 hrs by ELISA; format: cell-based
[7] = target: ALK tyrosine kinase receptor (Homo sapiens) (UniProt Q9UM73); experiment: Inhibition of ALK (unknown origin) assessed as remaining activity at 1 uM relative to control
[8] = target: Interleukin-1 receptor-associated kinase 4 (Homo sapiens) (UniProt Q9NWZ3); experiment: Inhibition of IRAK4 (unknown origin) assessed as remaining activity at 1 uM relative to control
[9] = target: Leucine-rich repeat serine/threonine-protein kinase 2 (Homo sapiens) (UniProt Q5S007); experiment: Inhibition of LRRK2 (unknown origin) assessed as remaining activity at 1 uM relative to control
[10] = target: Dual specificity protein kinase TTK (Homo sapiens) (UniProt P33981); experiment: Inhibition of TTK (unknown origin) assessed as remaining activity at 1 uM relative to control
[11] = target: Focal adhesion kinase 1 (Homo sapiens) (UniProt Q05397); experiment: Inhibition of FAK (unknown origin) assessed as remaining activity at 1 uM relative to control
[12] = target: Tyrosine-protein kinase receptor UFO (Homo sapiens) (UniProt P30530); experiment: Inhibition of AXL (unknown origin) assessed as remaining activity at 1 uM relative to control
[13] = target: Receptor-type tyrosine-protein kinase FLT3 (Homo sapiens) (UniProt P36888); experiment: Inhibition of FLT3 (unknown origin) assessed as remaining activity at 1 uM relative to control
[14] = target: Tyrosine-protein kinase JAK2 (Homo sapiens) (UniProt O60674); experiment: Inhibition of JAK2 (unknown origin) assessed as remaining activity at 1 uM relative to control
[15] = target: Epidermal growth factor receptor (Homo sapiens) (UniProt P00533); experiment: Inhibition of EGFR (unknown origin) assessed as remaining activity at 1 uM relative to control
[16] = target: Tyrosine-protein kinase Lck (Homo sapiens) (UniProt P06239); experiment: Inhibition of LCK (unknown origin) assessed as remaining activity at 1 uM relative to control
[17] = target: Tyrosine-protein kinase Fyn (Homo sapiens) (UniProt P06241); experiment: Inhibition of FYN (unknown origin) assessed as remaining activity at 1 uM relative to control
[18] = target: Tyrosine-protein kinase JAK1 (Homo sapiens) (UniProt P23458); experiment: Inhibition of JAK1 (unknown origin) assessed as remaining activity at 1 uM relative to control
[19] = target: Serine/threonine-protein kinase PAK 4 (Homo sapiens) (UniProt O96013); experiment: Inhibition of PAK4 (unknown origin) assessed as remaining activity at 1 uM relative to control
[20] = target: Insulin-like growth factor 1 receptor (Homo sapiens) (UniProt P08069); experiment: Inhibition of IGF-1R (unknown origin) assessed as remaining activity at 1 uM relative to control
[21] = target: Tyrosine-protein kinase SYK (Homo sapiens) (UniProt P43405); experiment: Inhibition of SYK (unknown origin) assessed as remaining activity at 1 uM relative to control
[22] = target: Tyrosine-protein kinase JAK3 (Homo sapiens) (UniProt P52333); experiment: Inhibition of JAK3 (unknown origin) assessed as remaining activity at 1 uM relative to control
[23] = target: Mitogen-activated protein kinase 10 (Homo sapiens) (UniProt P53779); experiment: Inhibition of JNK3 (unknown origin) assessed as remaining activity at 1 uM relative to control
[24] = target: Tyrosine-protein kinase BTK (Homo sapiens) (UniProt Q06187); experiment: Inhibition of BTK (unknown origin) assessed as remaining activity at 1 uM relative to control
[25] = target: Tyrosine-protein kinase ABL1 (Homo sapiens) (UniProt P00519); experiment: Inhibition of ABL (unknown origin) assessed as remaining activity at 1 uM relative to control
[26] = target: Mitogen-activated protein kinase 9 (Homo sapiens) (UniProt P45984); experiment: Inhibition of JNK2 (unknown origin) assessed as remaining activity at 1 uM relative to control
[27] = target: Tyrosine-protein kinase ZAP-70 (Homo sapiens) (UniProt P43403); experiment: Inhibition of ZAP70 (unknown origin) assessed as remaining activity at 1 uM relative to control
[28] = target: Mitogen-activated protein kinase 8 (Homo sapiens) (UniProt P45983); experiment: Inhibition of JNK1 (unknown origin) assessed as remaining activity at 1 uM relative to control
[29] = target: ALK tyrosine kinase receptor (Homo sapiens) (UniProt Q9UM73); experiment: Inhibition of ALK (unknown origin) at 1 uM
[30] = target: Interleukin-1 receptor-associated kinase 4 (Homo sapiens) (UniProt Q9NWZ3); experiment: Inhibition of IRAK4 (unknown origin) at 1 uM
[31] = target: Leucine-rich repeat serine/threonine-protein kinase 2 (Homo sapiens) (UniProt Q5S007); experiment: Inhibition of LRRK2 (unknown origin) at 1 uM

T1 sequence (Q92918 whole entry): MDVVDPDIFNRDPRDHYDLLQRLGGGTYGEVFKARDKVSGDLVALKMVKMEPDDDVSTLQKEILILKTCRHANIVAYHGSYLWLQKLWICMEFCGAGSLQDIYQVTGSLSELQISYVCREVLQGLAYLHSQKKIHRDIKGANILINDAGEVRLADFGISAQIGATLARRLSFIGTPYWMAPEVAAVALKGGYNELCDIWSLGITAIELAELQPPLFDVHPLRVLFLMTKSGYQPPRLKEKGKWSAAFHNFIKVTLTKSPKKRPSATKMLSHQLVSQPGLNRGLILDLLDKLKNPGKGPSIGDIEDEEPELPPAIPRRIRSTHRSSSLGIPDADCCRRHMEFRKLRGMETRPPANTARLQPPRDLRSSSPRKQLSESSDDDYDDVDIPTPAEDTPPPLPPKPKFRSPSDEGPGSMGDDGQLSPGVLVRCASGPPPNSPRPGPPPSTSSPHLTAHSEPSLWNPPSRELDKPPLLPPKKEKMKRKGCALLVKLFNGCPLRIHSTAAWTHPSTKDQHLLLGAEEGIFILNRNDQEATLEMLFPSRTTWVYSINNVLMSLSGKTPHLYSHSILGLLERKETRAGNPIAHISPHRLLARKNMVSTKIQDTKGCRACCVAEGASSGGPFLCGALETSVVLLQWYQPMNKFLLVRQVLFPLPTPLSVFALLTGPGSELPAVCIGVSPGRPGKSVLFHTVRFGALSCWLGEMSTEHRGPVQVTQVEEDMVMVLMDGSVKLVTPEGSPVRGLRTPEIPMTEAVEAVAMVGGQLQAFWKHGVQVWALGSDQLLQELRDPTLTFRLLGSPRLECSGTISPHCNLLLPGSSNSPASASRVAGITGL
Leucine-rich repeat serine/threonine-protein kinase 2 (Homo sapiens), sequence (Q5S007 whole entry): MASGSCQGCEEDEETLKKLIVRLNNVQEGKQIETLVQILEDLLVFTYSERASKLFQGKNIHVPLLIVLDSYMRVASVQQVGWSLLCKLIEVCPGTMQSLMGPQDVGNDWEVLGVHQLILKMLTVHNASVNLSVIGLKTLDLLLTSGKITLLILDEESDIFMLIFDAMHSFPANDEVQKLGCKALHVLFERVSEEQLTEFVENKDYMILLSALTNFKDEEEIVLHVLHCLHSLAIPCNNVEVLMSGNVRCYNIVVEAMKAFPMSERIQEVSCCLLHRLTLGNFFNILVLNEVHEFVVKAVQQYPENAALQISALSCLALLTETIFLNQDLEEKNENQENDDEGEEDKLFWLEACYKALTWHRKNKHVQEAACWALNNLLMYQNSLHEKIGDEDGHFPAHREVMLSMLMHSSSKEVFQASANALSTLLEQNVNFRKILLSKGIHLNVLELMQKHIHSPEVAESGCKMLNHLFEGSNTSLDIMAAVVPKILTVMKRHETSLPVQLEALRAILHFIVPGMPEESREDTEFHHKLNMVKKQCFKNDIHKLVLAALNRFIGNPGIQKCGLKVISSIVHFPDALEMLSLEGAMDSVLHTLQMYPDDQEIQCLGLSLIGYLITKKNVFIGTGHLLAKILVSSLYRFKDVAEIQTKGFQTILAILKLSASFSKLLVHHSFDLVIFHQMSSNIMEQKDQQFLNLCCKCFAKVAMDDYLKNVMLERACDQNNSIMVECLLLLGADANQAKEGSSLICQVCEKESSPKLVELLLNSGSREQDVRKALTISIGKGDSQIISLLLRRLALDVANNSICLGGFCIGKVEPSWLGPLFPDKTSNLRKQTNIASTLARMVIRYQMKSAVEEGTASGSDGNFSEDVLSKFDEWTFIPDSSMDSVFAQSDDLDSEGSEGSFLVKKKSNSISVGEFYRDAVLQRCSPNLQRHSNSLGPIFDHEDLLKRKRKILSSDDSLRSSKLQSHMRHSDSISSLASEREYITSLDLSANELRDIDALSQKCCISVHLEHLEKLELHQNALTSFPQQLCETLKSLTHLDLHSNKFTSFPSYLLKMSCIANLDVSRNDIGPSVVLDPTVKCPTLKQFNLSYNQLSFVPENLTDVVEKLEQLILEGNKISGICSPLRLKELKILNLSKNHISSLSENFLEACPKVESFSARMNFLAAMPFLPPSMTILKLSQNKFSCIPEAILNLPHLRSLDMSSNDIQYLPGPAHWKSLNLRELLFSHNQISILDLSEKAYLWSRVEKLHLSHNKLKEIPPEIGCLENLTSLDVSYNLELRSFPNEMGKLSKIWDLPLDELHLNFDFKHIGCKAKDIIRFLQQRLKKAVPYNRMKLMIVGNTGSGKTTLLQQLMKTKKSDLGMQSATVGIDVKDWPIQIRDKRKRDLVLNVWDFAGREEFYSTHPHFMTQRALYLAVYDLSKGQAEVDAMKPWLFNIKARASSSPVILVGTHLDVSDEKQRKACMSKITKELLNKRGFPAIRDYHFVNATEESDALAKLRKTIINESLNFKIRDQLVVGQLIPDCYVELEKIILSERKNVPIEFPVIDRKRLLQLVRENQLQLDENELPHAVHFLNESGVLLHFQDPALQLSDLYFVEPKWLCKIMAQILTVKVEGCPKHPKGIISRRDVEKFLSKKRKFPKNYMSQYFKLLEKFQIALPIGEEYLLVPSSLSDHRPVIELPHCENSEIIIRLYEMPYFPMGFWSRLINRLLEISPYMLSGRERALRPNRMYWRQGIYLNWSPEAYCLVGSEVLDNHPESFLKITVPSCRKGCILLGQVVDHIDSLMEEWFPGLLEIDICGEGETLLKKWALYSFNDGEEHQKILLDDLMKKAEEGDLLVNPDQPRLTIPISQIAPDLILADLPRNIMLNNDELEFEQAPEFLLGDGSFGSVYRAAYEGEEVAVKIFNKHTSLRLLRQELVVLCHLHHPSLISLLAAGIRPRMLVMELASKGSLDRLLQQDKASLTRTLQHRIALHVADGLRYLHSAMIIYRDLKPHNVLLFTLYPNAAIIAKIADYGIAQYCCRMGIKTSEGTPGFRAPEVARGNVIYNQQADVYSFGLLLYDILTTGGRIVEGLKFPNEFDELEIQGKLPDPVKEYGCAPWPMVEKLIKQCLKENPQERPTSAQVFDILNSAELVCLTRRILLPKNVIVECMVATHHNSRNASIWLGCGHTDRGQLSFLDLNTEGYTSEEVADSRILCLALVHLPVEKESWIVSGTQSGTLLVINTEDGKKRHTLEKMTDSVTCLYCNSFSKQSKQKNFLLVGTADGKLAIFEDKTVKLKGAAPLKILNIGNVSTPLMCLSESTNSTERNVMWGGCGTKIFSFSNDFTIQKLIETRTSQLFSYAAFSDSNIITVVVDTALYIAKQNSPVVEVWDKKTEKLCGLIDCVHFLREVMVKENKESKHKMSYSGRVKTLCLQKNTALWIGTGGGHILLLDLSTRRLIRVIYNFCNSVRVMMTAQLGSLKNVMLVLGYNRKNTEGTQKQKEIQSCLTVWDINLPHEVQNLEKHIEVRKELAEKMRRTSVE
ALK tyrosine kinase receptor (Homo sapiens), sequence (Q9UM73 19-1620 limits assumed): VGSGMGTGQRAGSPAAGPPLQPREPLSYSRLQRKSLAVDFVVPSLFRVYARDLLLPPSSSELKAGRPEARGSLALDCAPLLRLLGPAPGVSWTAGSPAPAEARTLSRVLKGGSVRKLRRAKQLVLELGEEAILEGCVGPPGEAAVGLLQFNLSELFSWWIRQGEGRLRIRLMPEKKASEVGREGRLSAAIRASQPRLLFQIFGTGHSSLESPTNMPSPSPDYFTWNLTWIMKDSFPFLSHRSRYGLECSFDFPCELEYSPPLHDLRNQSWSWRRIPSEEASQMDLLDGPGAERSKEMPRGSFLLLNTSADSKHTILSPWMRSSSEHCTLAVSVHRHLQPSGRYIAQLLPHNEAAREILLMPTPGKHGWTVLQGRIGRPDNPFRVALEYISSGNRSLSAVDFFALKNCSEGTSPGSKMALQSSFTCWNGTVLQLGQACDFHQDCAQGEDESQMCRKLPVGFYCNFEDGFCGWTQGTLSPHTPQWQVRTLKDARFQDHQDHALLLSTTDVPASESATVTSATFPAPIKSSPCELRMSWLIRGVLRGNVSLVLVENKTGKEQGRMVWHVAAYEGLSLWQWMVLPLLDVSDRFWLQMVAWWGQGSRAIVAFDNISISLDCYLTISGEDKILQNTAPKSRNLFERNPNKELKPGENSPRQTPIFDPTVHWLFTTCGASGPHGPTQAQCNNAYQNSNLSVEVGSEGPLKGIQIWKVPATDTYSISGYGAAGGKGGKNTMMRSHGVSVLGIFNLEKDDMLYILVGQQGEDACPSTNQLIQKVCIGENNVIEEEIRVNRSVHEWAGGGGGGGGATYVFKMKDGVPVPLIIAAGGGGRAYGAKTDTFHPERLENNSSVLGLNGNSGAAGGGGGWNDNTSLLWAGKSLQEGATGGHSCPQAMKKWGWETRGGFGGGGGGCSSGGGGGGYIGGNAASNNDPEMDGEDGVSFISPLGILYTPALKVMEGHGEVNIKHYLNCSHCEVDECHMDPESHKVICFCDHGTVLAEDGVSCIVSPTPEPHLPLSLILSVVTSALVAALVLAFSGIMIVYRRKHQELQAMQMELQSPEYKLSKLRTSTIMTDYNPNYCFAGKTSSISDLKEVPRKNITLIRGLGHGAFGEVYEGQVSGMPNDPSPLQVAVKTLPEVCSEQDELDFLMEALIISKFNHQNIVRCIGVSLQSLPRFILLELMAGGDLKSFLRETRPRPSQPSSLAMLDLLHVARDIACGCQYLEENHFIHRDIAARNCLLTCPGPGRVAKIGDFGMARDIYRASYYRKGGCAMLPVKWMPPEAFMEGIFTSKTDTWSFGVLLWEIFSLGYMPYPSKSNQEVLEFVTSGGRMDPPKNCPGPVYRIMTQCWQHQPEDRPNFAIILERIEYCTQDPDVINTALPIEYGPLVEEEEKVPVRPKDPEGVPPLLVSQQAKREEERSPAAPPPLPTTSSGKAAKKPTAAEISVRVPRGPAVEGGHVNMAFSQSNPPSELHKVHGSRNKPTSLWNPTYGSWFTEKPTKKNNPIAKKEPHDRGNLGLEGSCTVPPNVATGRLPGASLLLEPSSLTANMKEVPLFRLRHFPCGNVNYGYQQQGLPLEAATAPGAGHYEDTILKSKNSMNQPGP

## COc1cc2c(cc1Nc1nc(Nc3ccccc3S(=O)(=O)N(C)C)c3cc[nH]c3n1)CN(C)CC2
[1]
  pIC50: 8.60

## COc1cc2c(cc1Nc1nc(Nc3ccccc3C(C)(C)C)c3cc[nH]c3n1)CN(C)CC2
[1]
  pIC50: 6.41

## COc1cc2c(cc1Nc1nc(Nc3ccccc3P(C)(C)=O)c3cc[nH]c3n1)CN(C)CC2
[1]
  pIC50: 8.12

## CN1CCc2cc(Nc3nc(Nc4ccccc4S(=O)(=O)N(C)C)c4c(-c5cccnc5)c[nH]c4n3)ccc2C1
[1]
  pIC50: 8.22

## CCN(CC)S(=O)(=O)c1ccccc1Nc1nc(Nc2cc3c(cc2OC)CCN(C)C3)nc2[nH]ccc12
[1]
  pIC50: 8.15

## CN(C)S(=O)(=O)c1ccccc1Nc1nc(Nc2ccc(N3CCOCC3)cc2)nc2[nH]cc(-c3cccnc3)c12
[1]
  pIC50: 8.30

## COc1cc2c(cc1Nc1nc(Nc3ccccc3S(=O)(=O)N(C)C)c3c(-c4c[nH]nc4C)c[nH]c3n1)CN(C)CC2
[1]
  pIC50: 8.46

## COc1cc2c(cc1Nc1nc(Nc3ccccc3S(=O)(=O)N(C)C)c3c(-c4ccoc4)c[nH]c3n1)CN(C)CC2
[1]
  pIC50: 8.40

## COc1cc2c(cc1Nc1nc(Nc3ccccc3)c3cc[nH]c3n1)CN(C)CC2
[1]
  pIC50: 6.51

## Cn1cc(Nc2ncc(C3=CCC[C@@H](NC(=O)c4ccccc4)C3)nc2C(N)=O)cn1
[2]
  pIC50: 7.07
[3]
  pIC50: 6.82

## COc1cc(Nc2nc(Nc3ccccc3S(=O)(=O)N(C)C)c3c(-c4cccnc4)c[nH]c3n2)ccc1N1CCOCC1
[1]
  pIC50: 8.35

## COc1cc2c(cc1Nc1nc(Nc3ccccc3S(=O)(=O)N(C)C)c3c(-c4cnn(C)c4)c[nH]c3n1)CN(C)CC2
[1]
  pIC50: 8.05

## COc1cc2c(cc1Nc1nc(Nc3ccccc3S(=O)(=O)N(C)C)c3c(-c4ccn(C)c(=O)c4)c[nH]c3n1)CN(C)CC2
[1]
  pIC50: 8.05

## COc1cc2c(cc1Nc1nc(Nc3ccccc3S(=O)(=O)N(C)C)c3c(-c4cnccc4C)c[nH]c3n1)CN(C)CC2
[1]
  pIC50: 7.85

## COc1cc2c(cc1Nc1nc(Nc3ccccc3OC)c3cc[nH]c3n1)CN(C)CC2
[1]
  pIC50: 6.90

## CCOc1cc(Nc2nc(Nc3ccccc3S(=O)(=O)N(C)C)c3c(-c4cccnc4)c[nH]c3n2)ccc1N1CCOCC1
[1]
  pIC50: 8.26

## COc1cc2c(cc1Nc1nc(Nc3ccccc3S(=O)(=O)N(C)C)c3c(-c4cccnc4)c[nH]c3n1)CN(C(C)C)CC2
[1]
  pIC50: 7.92

## COc1cc(N2CCOCC2)ccc1Nc1nc(Nc2ccccc2S(=O)(=O)N(C)C)c2c(-c3cccnc3)c[nH]c2n1
[1]
  pIC50: 6.11

## COc1cc2c(cc1Nc1nc(Nc3ccccc3F)c3cc[nH]c3n1)CN(C)CC2
[1]
  pIC50: 6.19

## COc1cc2c(cc1Nc1nc(Nc3ccccc3S(=O)(=O)N3CCC3)c3cc[nH]c3n1)CN(C)CC2
[1]
  pIC50: 9.00

## CN1CCc2ccc(Nc3nc(Nc4ccccc4S(=O)(=O)N(C)C)c4c(-c5cccnc5)c[nH]c4n3)cc2C1
[1]
  pIC50: 8.82

## COc1cc2c(cc1Nc1nc(Nc3ccccc3S(=O)(=O)N3CCCC3)c3cc[nH]c3n1)CN(C)CC2
[1]
  pIC50: 8.82

## COc1cc2c(cc1Nc1ncc(Cl)c(Nc3ccccc3P(C)(C)=O)n1)CN(C)CC2
[4]
  pIC50: > 8.30

## COc1cc2c(cc1Nc1nc(Nc3ccccc3S(=O)(=O)N3CC(C)(C)C3)c3cc[nH]c3n1)CN(C)CC2
[1]
  pIC50: 7.90

## COc1cc2c(cc1Nc1nc(Nc3ccccc3C)c3cc[nH]c3n1)CN(C)CC2
[1]
  pIC50: 6.34

## COc1cc2c(cc1Nc1nc(Nc3ccccc3S(=O)(=O)N3CCC3)c3c(-c4cccnc4)c[nH]c3n1)CN(C)CC2
[1]
  pIC50: 7.35

## COc1cc2c(cc1Nc1nc(Nc3ccccc3S(=O)(=O)N(C)C)c3c(-c4ccccc4)c[nH]c3n1)CN(C)CC2
[1]
  pIC50: < 6.00

## COc1cc2c(cc1Nc1nc(Nc3ccccc3S(=O)(=O)N(C)C)c3c(-c4cn[nH]c4)c[nH]c3n1)CN(C)CC2
[1]
  pIC50: 8.52

## COc1cc2c(cc1Nc1nc(Nc3ccccc3S(=O)(=O)N3CCOCC3)c3cc[nH]c3n1)CN(C)CC2
[1]
  pIC50: 6.46

## COc1cc2c(cc1Nc1nc(Nc3ccccc3S(=O)(=O)N(C)C)c3c(-c4ccc(N)nc4)c[nH]c3n1)CN(C)CC2
[1]
  pIC50: 7.92

## COc1cc2c(cc1Nc1nc(Nc3ccccc3Cl)c3cc[nH]c3n1)CN(C)CC2
[1]
  pIC50: 6.20

## COc1cc2c(cc1Nc1nc(Nc3ccccc3S(=O)(=O)N(C)C)c3c(-c4cccnc4C)c[nH]c3n1)CN(C)CC2
[1]
  pIC50: 7.53

## COc1cc2c(cc1Nc1nc(Nc3ccccc3S(=O)(=O)N(C)C)c3c(-c4ccncc4)c[nH]c3n1)CN(C)CC2
[1]
  pIC50: 8.02

## COc1cc2c(cc1Nc1nc(Nc3ccccc3OC(C)C)c3cc[nH]c3n1)CN(C)CC2
[1]
  pIC50: 7.08

## COc1cc2c(cc1Nc1nc(Nc3ccccc3S(=O)(=O)N(C)C)c3c(-c4c(C)noc4C)c[nH]c3n1)CN(C)CC2
[1]
  pIC50: 7.38

## COc1cc2c(cc1Nc1nc(Nc3ccccc3S(=O)(=O)N3CCCCC3)c3cc[nH]c3n1)CN(C)CC2
[1]
  pIC50: 7.76

## COc1cc2c(cc1Nc1nc(Nc3ccccc3S(=O)(=O)C(C)C)c3cc[nH]c3n1)CN(C)CC2
[1]
  pIC50: 8.35

## CCCN(CCC)S(=O)(=O)c1ccccc1Nc1nc(Nc2cc3c(cc2OC)CCN(C)C3)nc2[nH]ccc12
[1]
  pIC50: 7.14

## COc1cc2c(cc1Nc1nc(Nc3ccccc3S(=O)(=O)N3CCCC3)c3c(-c4cccnc4)c[nH]c3n1)CN(C)CC2
[1]
  pIC50: 8.35

## CN1CCc2cc(Cl)c(Nc3nc(Nc4ccccc4S(=O)(=O)N(C)C)c4c(-c5cccnc5)c[nH]c4n3)cc2C1
[1]
  pIC50: 8.70
[5]
  pIC50: 5.92
[6]
  pEC50: 5.86
[7]
  Activity: < 50%
[8]
  Activity: < 50%
[9]
  Activity: < 50%
[10]
  Activity: < 50%
[11]
  Activity: < 50%
[12]
  Activity: < 50%
[13]
  Activity: < 50%
[14]
  Activity: < 50%
[15]
  Activity: > 50%
[16]
  Activity: > 50%
[17]
  Activity: > 50%
[18]
  Activity: > 50%
[19]
  Activity: > 50%
[20]
  Activity: > 50%
[21]
  Activity: > 50%
[22]
  Activity: > 50%
[23]
  Activity: > 50%
[24]
  Activity: > 50%
[25]
  Activity: > 50%
[26]
  Activity: > 50%
[27]
  Activity: > 50%
[28]
  Activity: > 50%
[29]
  inhibition: > 90%
[30]
  inhibition: > 90%
[31]
  inhibition: > 90%

## COc1cc2c(cc1Nc1nc(Nc3ccccc3S(=O)(=O)N3CCC(C)(C)CC3)c3cc[nH]c3n1)CN(C)CC2
[1]
  pIC50: 6.45

## COc1ccc(CN(C)C)cc1Nc1nc(Nc2ccccc2S(=O)(=O)N(C)C)c2c(-c3cccnc3)c[nH]c2n1
[1]
  pIC50: 7.01

— ChEMBL document CHEMBL5325423, “Discovery of 7H-Pyrrolo[2,3-d]pyrimidine Derivatives as potent hematopoietic progenitor kinase 1 (HPK1) inhibitors” (Eur J Med Chem, 2023)
